From ChEMBL document CHEMBL3638757, “Pyridazinones, method of making, and method of use thereof” (2015)

Biological target: Tyrosine-protein kinase BTK (Homo sapiens, UniProt Q06187)
Assay: Biochemical Assay: A generalized procedure for a standard biochemical Btk Kinase Assay that can be used to test Formula I compounds is as follows. A master mix minus Btk enzyme is prepared containing IX Cell Signaling kinase buffer (25 mM Tris-HCl, pH 7.5, 5 mM beta- glycerophosphate, 2 mM dithiothreitol, 0.1 mM Na3V04, 10 mM MgCl2), 0.5 ul Promega PTK Biotinylated peptide substrate 2, and 0.01% BSA. A master mix plus Btk enzyme is prepared containing IX Cell Signaling kinase buffer, 0.5 ul PTK Biotinylated peptide substrate 2, 0.01% BSA, and 100 ng/well (0.06 mU/well) Btk enzyme. Btk enzyme is prepared as follows: full length human wildtype Btk (accession number NM-000061) with a C-terminal V5 and 6x His tag was subcloned into pFastBac vector for making baculo virus carrying this epitope-tagged Btk. Generation of baculovirus is done based on Invitrogen's instructions detailed in its published protocol "Bac-to-Bac Baculovirus Expression Systems".

Tyrosine-protein kinase BTK, sequence (Q06187 whole entry): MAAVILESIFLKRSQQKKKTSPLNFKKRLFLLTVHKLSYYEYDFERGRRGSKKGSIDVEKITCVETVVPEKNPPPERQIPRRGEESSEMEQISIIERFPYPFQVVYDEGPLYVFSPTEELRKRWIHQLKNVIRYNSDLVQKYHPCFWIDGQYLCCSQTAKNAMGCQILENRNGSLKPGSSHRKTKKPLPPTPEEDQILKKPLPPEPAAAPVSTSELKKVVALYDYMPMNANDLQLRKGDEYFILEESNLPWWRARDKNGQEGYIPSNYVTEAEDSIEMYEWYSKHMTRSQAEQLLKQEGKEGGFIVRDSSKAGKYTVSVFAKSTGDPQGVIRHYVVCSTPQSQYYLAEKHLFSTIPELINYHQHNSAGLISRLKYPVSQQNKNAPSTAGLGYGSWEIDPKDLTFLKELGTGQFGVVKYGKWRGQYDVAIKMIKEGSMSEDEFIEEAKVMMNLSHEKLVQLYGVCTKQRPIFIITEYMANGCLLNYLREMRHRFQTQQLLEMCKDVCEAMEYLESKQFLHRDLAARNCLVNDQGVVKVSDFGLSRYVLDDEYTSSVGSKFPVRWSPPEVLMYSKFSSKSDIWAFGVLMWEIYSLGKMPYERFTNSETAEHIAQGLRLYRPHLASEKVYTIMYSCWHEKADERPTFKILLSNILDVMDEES

Cc1cc(Nc2cc(-c3ccc(F)c(N4Cc5cc(C(C)(C)C)sc5C4=O)c3)n[nH]c2=O)nn1C
IC50: 9 nM
